Results: PubChem BioAssay (NCI)
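48-hour exposure; five concentrations; linearly interpolated endpoints. GI50 = concentration required for 50% inhibition of growth. The concentration for full growth arrest is given as TGI.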

Legend:
Experiment in all cases: NCI anticancer screen, dose series, 48 h
HS 578T breast = system: HS 578T breast
MDA-MB-435 = system: MDA-MB-435
SK-MEL-5 melanoma = system: SK-MEL-5 melanoma
HCC-2998 colon = system: HCC-2998 colon
IGROV1 ovarian = system: IGROV1 ovarian
A498 renal = system: A498 renal
SNB-19 CNS = system: SNB-19 CNS
CCRF-CEM leukemia = system: CCRF-CEM leukemia
SK-OV-3 ovarian = system: SK-OV-3 ovarian
MDA-MB-231 breast = system: MDA-MB-231 breast

| Structure (SMILES) | GI50 (HS 578T breast) [nM] | TGI (HS 578T breast) [nM] | GI50 (MDA-MB-435) [nM] | TGI (MDA-MB-435) [nM] | GI50 (SK-MEL-5 melanoma) [nM] | TGI (SK-MEL-5 melanoma) [nM] | GI50 (HCC-2998 colon) [nM] | TGI (HCC-2998 colon) [nM] | GI50 (IGROV1 ovarian) [nM] | TGI (IGROV1 ovarian) [nM] | GI50 (A498 renal) [nM] | TGI (A498 renal) [nM] | GI50 (SNB-19 CNS) [nM] | TGI (SNB-19 CNS) [nM] | GI50 (CCRF-CEM leukemia) [nM] | TGI (CCRF-CEM leukemia) [nM] | GI50 (SK-OV-3 ovarian) [nM] | TGI (SK-OV-3 ovarian) [nM] | GI50 (MDA-MB-231 breast) [nM] | TGI (MDA-MB-231 breast) [nM] |
| --- | --- | --- | --- | --- | --- | --- | --- | --- | --- | --- | --- | --- | --- | --- | --- | --- | --- | --- | --- | --- |
| O=C(Cc1csc2nc(-c3ccc(Br)cc3)cn12)N/N=C/c1ccc(Cl)cc1Cl | 31800 | 89100 | 31400 | > 100000 | 44200 | > 100000 | 20000 | 44800 | 16000 | 45600 | 29300 | 62700 | 94600 | > 100000 | 40000 | > 100000 | > 100000 | > 100000 | 26200 | > 100000 |
| O=C(NO)c1ccc(Cn2c(=O)n(-c3ccccc3)c(=O)c3ccccc32)cc1 | 1600 | 9430 | 531 | 1770 | 1060 | 2300 | 1310 | 2650 | – | – | 418 | 2090 | 1850 | > 100000 | 457 | > 100000 | 1300 | 3170 | 1630 | 5160 |
| COC1C(CO)OC(n2c3c(Cl)cccc3c3c4c(c5c6cccc(Cl)c6[nH]c5c32)C(=O)NC4=O)C(O)C1O (stereo unspecified) | – | > 100000 | – | > 100000 | – | 321 | – | > 20000 | – | 7760 | – | 688 | – | > 100000 | – | > 100000 | – | > 24900 | – | > 54700 |
| CN(C)c1ccc2cc3ccc(N(C)C)cc3nc2c1 | – | 10700 | – | 13000 | – | 8340 | – | 2640 | – | 17300 | – | 9010 | – | 3950 | – | – | – | 13900 | – | 2890 |
| C[C@@H](Oc1cc(-n2cnc3ccc(OCC4CCN(C)CC4)cc32)sc1C(N)=O)c1ccccc1Cl | 75.9 | 502 | 12.6 | 64.3 | 92.9 | 1260 | 81.5 | 3270 | 129 | 4900 | 92.7 | 713 | 177 | 5010 | 9.65 | 856 | 101 | 2930 | 92.4 | 2150 |
| COc1ccc(C(=O)/C=C/c2cc(-c3ccc4c(c3)OCO4)n[nH]2)cc1OC | 2690 | 8210 | 3030 | 10000 | 6740 | 19900 | 4990 | 17300 | 2790 | 9200 | 1550 | 4230 | 3200 | 15200 | 2520 | 9580 | 3970 | 26400 | 2440 | 7390 |
| Cc1ccc2nc3c(n2c1)C(=O)C(=O)c1ccccc1-3 | 213 | 618 | 66.1 | 137 | 112 | 244 | 707 | 2190 | 319 | – | 1370 | 2710 | 565 | 1580 | 429 | 3370 | 1010 | 2470 | 505 | 3070 |
